Columns and labels:
Assay type in all cases: cell-based
TNFα = assay: TNF-α inhibition assay, LPS-induced PBMCs or CD14+ monocytes, Meso Scale; conditions: 1 h pretreatment, 100 ng/mL LPS 18-24 h, supernatant
Procedure: (§1) Either frozen primary blood mononuclear cells (PBMCs) or frozen CD14+ mobilized peripheral blood monocytes were purchased from AllCells (PB003F, Normal Peripheral Blood MNC (Alameda, Calif.)). Cells were quick thawed, washed 1-time with RPMI-1640 (10% FBS/1% Pen-Strep) and plated in 96 well plates at 200,000 cells per well. Cells were pretreated with DMSO only or with the indicated compound for 1 h and then induced with 100 ng/mL lipopolysaccharide (LPS) for 18-24 h. The supernatant was analyzed for IL-1β, IL-6, and TNFα, using Meso Scale assay according to manufacturer's protocol. The negative control wells were treated with DMSO.
(§2) In each of Tables 5-7, the % inhibition values are reported as “A”, “B”, “C”, or “D”. “A” represents a % inhibition value of less than 50% (value <50%). “B” represents a % inhibition value of equal to or more than 50% and less than 70% (50%≤value<70%). “C” represents a % inhibition value of equal to or more than 70% and less than 90% (70%≤value<90%). “D” represents a % inhibition value of equal or more than 90% (value≥90%). In Table 8, the fold-change values are reported as “A”, “B”, “C”, or “D”. “A” represents a fold-change value of equal to or less than 1 (value≤1). “B” represents a fold-change value of more than 1 and equal to or less than 2 (1<value≤2). “C” represents a fold-change value of more than 2 and equal to or less than 3 (2<value≤3). “D” represents a fold-change value of more than 3 (value>3).

IL-2 = IL-2 fold-change assay, anti-CD3 stimulated PBMCs, Mesoscale; conditions: PBMC, PBMCs on anti-human CD3 (OKT3) coated plates, 24 h, fold difference from the DMSO control
Procedure: For the IL-2 analysis, 96 well plates were precoated with 1 μg/mL anti-human CD3 antibody (OKT3, eBioscience Inc., San Diego, Calif.). After washing with PBS, the indicated compound was added (50 μL/well) followed by PBMCs diluted at 3-4 million cells/mL (150 μL/well). Plates were incubated for 24 h and the supernatants collected for Mesoscale IL-2 analysis. IL-2 activity is measured as fold difference from the DMSO control.
as §2

IKAROS = molecular target: T1, IKAROS (Homo sapiens, UniProt Q13422+Q96SW2); assay: IKAROS degradation assay (Western blot, MV-4-11 cells); conditions: 6-8 hours; for IKAROS % degradation at 1 µM: MV4-11, 1 μM
T1 construct: endogenous in cells; host or cells: MV-4-11
Procedure: (§3) MV-4-11 cells were grown in RPMI 1640 media supplemented with 10% fetal bovine serum, streptomycin and penicillin.
(§4) Cells were cultured at approximately 10^6 cells per mL and incubated in DMSO or the indicated compound for 6-8 hours. Whole cell extracts were prepared using RIPA buffer according to manufacturer's protocol (Pierce). Briefly, 3×10^6 cells were washed once in PBS, the cell pellets were resuspended in RIPA buffer and allowed to incubate for 15 minutes on ice. Cells debris was removed by centrifugation and the cleared whole cell lysates were transferred to new tubes for further analysis.
(§5) For Western blot analysis, whole cell protein extracts were separated on 4-12% SDS-polyacrylamide gels, transferred to nitrocellulose and probed with the indicated primary antibodies. Membranes were subsequently washed and probed with the appropriate IRDye secondary antibodies (LI-COR). The signal was detected using the Odyssey Imaging System (LI-COR).
(§6) The following antibodies were used in these studies: Anti-eRF3/GSPT1: Abcam, ab126090 (Cambridge, Mass.); Anti-Ikaros: Abcam, ab191394 (Cambridge, Mass.); Anti-CK1α: Abcam, ab108296 (Cambridge, Mass.); β-actin (8H10D10) mouse monoclonal antibody: Cell Signaling Technology, #3700 (Danvers, Mass.); IRDye 680RD Goat anti-rabbit antibody: LI-COR, 926-68071 (Lincoln, Nebr.); IRDye 800CW Goat anti-mouse antibody: LI-COR, 926-32210 (Lincoln, Nebr.).
(§7) In each of Tables 1-4, the % degradation values are reported as “A”, “B”, “C”, or “D”. “A” represents a % degradation value of less than 25% (value<25%). “B” represents a % degradation value of equal to or more than 25% and less than 50% (25%≤value<50%). “C” represents a % degradation value of equal to or more than 50% and less than 75% (50%≤value <75%). “D” represents a % degradation value of equal to or more than 75% (value≥75%).

IL-6 = IL-6 inhibition assay, LPS-induced PBMCs or CD14+ monocytes, Meso Scale; conditions: 1 h pretreatment, 100 ng/mL LPS 18-24 h, supernatant
Procedure: as §1, §2

IL-1β = IL-1β inhibition assay, LPS-induced PBMCs or CD14+ monocytes, Meso Scale; conditions: 1 h pretreatment, 100 ng/mL LPS 18-24 h, supernatant, read-out: I1-1β % Inhibition at 10 μM
Procedure: as §1, §2

MOLM-13 cells = assay: MOLM-13 cell viability assay (CellTiter-Glo); conditions: Homo sapiens, MOLM-13, 72 h, 3 days, % of DMSO control
Procedure: MOLM-13 cells were cultured in RPMI 1640 media supplemented with 10% fetal bovine serum, streptomycin and penicillin, and were plated in white walled 96-well plates at 2500 cells/well. Cells were incubated in DMSO (control) or the indicated compound for 3 days at 37° C. and 5% CO2. Following the incubation period, 100 μL of CellTiterGlow (CTG) reagent (CellTiter-Glo® Luminescent Cell Viability Assay, Promega (Madison, Wis.)) was added to each well. Following a 10 minutes incubation with shaking, luminescence was measured using the EnVision Multimode plate reader.
The MOLM-13 cell viability values as % DMSO are reported as “A”, “B”, “C”, or “D”. “A” represents a % viability value of less than 25% (value<25%). “B” represents a % viability value of equal to or more than 25% and less than 50% (25%≤value<50%). “C” represents a % viability value of equal to or more than 50% and less than 75% (50%≤value<75%). “D” represents a % viability value of equal or more than 75% (value≥75%).

CK1α = molecular target: T2, CK1α (Homo sapiens, UniProt P48729+Q96SW2); assay: CK1α degradation assay (Western blot, MV-4-11 cells); conditions: MV4-11, 6-8 hours
T2 construct: Whole cell extracts were prepared using RIPA buffer; endogenous in cells; host or cells: MV-4-11
Procedure: as §3, §4, §5, §6, §7

T2 sequence (P48729 whole entry): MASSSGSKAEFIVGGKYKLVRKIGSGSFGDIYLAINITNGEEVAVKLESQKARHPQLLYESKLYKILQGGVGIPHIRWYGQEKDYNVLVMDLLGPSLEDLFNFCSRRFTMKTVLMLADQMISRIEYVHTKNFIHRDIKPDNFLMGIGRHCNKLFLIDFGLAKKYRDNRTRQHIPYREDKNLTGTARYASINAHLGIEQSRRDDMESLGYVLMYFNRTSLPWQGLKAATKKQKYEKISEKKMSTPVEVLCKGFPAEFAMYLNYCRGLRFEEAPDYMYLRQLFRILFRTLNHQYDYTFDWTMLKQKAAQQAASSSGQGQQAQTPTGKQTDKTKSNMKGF
T2 sequence (Q96SW2 whole entry): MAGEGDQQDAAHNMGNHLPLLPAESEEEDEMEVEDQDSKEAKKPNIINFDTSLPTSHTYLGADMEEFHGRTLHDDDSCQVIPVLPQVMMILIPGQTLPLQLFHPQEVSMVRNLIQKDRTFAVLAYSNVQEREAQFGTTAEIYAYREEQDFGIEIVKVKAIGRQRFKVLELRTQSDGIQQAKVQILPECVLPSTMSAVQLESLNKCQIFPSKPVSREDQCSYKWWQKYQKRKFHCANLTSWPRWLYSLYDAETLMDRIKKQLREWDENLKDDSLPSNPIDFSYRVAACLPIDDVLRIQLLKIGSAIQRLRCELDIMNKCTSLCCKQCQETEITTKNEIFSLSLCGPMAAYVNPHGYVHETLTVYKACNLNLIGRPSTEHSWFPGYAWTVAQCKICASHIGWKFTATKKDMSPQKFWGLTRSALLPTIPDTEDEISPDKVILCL
T2 sequence (Q16531 whole entry partner): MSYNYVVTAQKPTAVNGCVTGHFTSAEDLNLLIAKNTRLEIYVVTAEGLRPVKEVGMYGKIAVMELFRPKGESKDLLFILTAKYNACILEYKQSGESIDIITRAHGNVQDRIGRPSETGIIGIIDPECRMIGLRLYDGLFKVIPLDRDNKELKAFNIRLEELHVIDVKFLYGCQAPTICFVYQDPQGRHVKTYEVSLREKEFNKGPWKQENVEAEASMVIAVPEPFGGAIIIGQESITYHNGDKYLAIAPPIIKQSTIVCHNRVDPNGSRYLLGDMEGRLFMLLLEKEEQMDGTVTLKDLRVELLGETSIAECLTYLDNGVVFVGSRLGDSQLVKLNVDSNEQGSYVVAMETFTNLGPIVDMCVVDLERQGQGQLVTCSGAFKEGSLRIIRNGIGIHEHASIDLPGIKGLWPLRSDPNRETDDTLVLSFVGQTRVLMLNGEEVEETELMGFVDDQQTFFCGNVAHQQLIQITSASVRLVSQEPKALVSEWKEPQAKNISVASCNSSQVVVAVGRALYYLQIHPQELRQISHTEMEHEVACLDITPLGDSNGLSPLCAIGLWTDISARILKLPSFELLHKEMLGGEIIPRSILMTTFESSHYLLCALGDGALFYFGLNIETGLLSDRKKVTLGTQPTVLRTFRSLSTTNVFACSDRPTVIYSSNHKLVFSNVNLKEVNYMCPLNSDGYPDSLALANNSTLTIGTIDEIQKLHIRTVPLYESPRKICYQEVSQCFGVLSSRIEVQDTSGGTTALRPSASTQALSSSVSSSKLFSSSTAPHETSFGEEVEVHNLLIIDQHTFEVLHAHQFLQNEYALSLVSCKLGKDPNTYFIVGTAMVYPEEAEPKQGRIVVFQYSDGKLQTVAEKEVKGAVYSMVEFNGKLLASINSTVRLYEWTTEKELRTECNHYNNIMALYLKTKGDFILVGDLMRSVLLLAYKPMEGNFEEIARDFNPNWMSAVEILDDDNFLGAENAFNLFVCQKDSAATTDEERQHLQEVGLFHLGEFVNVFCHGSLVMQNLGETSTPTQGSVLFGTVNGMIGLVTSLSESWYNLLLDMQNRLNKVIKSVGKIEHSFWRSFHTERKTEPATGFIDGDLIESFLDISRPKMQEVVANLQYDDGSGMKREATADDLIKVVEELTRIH
T1 sequence (Q13422 whole entry): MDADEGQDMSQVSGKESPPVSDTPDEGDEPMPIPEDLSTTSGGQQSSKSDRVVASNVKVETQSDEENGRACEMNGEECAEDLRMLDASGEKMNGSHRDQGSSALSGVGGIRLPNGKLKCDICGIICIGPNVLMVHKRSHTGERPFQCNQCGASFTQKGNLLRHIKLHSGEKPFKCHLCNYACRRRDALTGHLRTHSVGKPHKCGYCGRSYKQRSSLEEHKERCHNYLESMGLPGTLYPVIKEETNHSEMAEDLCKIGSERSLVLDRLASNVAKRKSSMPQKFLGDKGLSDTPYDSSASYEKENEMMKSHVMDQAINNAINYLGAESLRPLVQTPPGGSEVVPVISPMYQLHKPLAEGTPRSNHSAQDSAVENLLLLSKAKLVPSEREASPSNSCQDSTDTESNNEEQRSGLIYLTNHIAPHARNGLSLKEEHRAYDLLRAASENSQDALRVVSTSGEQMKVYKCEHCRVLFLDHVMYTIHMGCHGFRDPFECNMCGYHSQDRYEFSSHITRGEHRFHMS
T1 sequence (Q96SW2 whole entry): as the sequence (Q96SW2 whole entry) above
T1 sequence (Q16531 whole entry partner): as the sequence (Q16531 whole entry partner) above

| SMILES | inhibition at 10 µM (TNFα) [%] | fold induction at 10 µM (IL-2) | IKAROS % Degradation at 10 μM (IKAROS) | inhibition at 10 µM (IL-6) [%] | inhibition at 10 µM (IL-1β) [%] | IKAROS % degradation at 1 µM (IKAROS) [%] | viability at 10 µM (MOLM-13 cells) [%] | percent degradation at 1 µM (CK1α) [%] |
| --- | --- | --- | --- | --- | --- | --- | --- | --- |
| O=C1CC[C@H](N2Cc3c(NCc4ccc(CN5CCOCC5)cc4)csc3C2=O)C(=O)N1 [Compound 3, (S)-3-(3-((4-(morpholinomethyl)benzyl)amino)-6-oxo-4H-thieno[2,3-c]pyrrol-5(6H)-yl)piperidine-2,6-dione] | < 50 | ≤ 1 | C (“C” represents a % degradation value of equal to or more than 50% and less than 75% (50%≤value <75%)) |  |  |  |  |  |
| O=C1CC[C@H](N2Cc3c(COc4ccc(CN5CCOCC5)cc4)csc3C2=O)C(=O)N1 [Compound 5, (S)-3-(3-((4-(morpholinomethyl)phenoxy)methyl)-6-oxo-4H-thieno[2,3-c]pyrrol-5(6H)-yl)piperidine-2,6-dione] |  | 1 to 2 |  |  |  |  |  |  |
| O=C1CC[C@H](N2Cc3c(csc3CCc3ccc(CN4CCOCC4)cc3)C2=O)C(=O)N1 [Compound 6, (S)-3-(1-(4-(morpholinomethyl)phenethyl)-4-oxo-4H-thieno[3,4-c]pyrrol-5(6H)-yl)piperidine-2,6-dione] | 70 to 90 | 2 to 3 |  | < 50 | 70 to 90 | 25 to 50 |  |  |
| O=C1CC[C@H](N2Cc3c(csc3COc3cccc(CN4CCOCC4)c3)C2=O)C(=O)N1 [Compound 7, (S)-3-(1-((3-(morpholinomethyl)phenoxy)methyl)-4-oxo-4H-thieno[3,4-c]pyrrol-5(6H)-yl)piperidine-2,6-dione] | 70 to 90 | 2 to 3 |  |  | 70 to 90 | 50 to 75 |  |  |
| O=C1CC[C@H](N2Cc3c(csc3COc3ccc(CN4CCOCC4)cc3F)C2=O)C(=O)N1 [Compound 8, (S)-3-(1-((2-fluoro-4-(morpholinomethyl)phenoxy)methyl)-4-oxo-4H-thieno[3,4-c]pyrrol-5(6H)-yl)piperidine-2,6-dione] | > 90 | 2 to 3 |  | 70 to 90 | > 90 | 25 to 50 |  |  |
| O=C1CC[C@H](N2Cc3c(csc3COCc3ccc(CN4CCOCC4)cc3)C2=O)C(=O)N1 [Compound 9, (S)-3-(1-(((4-(morpholinomethyl)benzyl)oxy)methyl)-4-oxo-4H-thieno[3,4-c]pyrrol-5(6H)-yl)piperidine-2,6-dione] | > 90 | > 3 |  | < 50 | 70 to 90 |  |  |  |
| O=C1CC[C@H](N2Cc3c(csc3CNc3ccc(CN4CCOCC4)cc3)C2=O)C(=O)N1 [Compound 10, (S)-3-(1-(((4-(morpholinomethyl)phenyl)amino)methyl)-4-oxo-4H-thieno[3,4-c]pyrrol-5(6H)-yl)piperidine-2,6-dione] | > 90 | 2 to 3 |  | < 50 | 70 to 90 |  | 25 to 50 |  |
| O=C1CC[C@H](N2Cc3c(CNc4ccc(CN5CCOCC5)cc4)csc3C2=O)C(=O)N1 [Compound 11, (S)-3-(3-(((4-(morpholinomethyl)phenyl)amino)methyl)-6-oxo-4H-thieno[2,3-c]pyrrol-5(6H)-yl)piperidine-2,6-dione] | < 50 | 1 to 2 |  |  |  |  | < 25 |  |
| O=C1CC[C@H](N2Cc3c(csc3COc3ccc(CN4CCOCC4)cn3)C2=O)C(=O)N1 [Compound 12, (S)-3-(1-(((5-(morpholinomethyl)pyridin-2-yl)oxy)methyl)-4-oxo-4H-thieno[3,4-c]pyrrol-5(6H)-yl)piperidine-2,6-dione] | < 50 | 1 to 2 |  |  |  |  |  |  |
| O=C1CC[C@H](N2Cc3c(csc3COc3ccc(CN4CCCC4)cc3)C2=O)C(=O)N1 [Compound 13, (S)-3-(4-oxo-1-((4-(pyrrolidin-1-ylmethyl)phenoxy)methyl)-4H-thieno[3,4-c]pyrrol-5(6H)-yl)piperidine-2,6-dione] | > 90 | 2 to 3 |  | 50 to 70 | > 90 | 25 to 50 | 50 to 75 | 50 to 75 |
| O=C1CC[C@H](N2Cc3c(csc3COc3ccc(CCN4CCOCC4)cc3)C2=O)C(=O)N1 [Compound 15, (S)-3-(1-((4-(2-morpholinoethyl)phenoxy)methyl)-4-oxo-4H-thieno[3,4-c]pyrrol-5(6H)-yl)piperidine-2,6-dione] | 70 to 90 | > 3 |  | 50 to 70 | > 90 | 25 to 50 |  | 25 to 50 |
| O=C1CC[C@H](N2Cc3cc(COc4ccc(CN5CCOCC5)cc4)sc3C2=O)C(=O)N1 [Compound 16, (S)-3-(2-((4-(morpholinomethyl)phenoxy)methyl)-6-oxo-4H-thieno[2,3-c]pyrrol-5(6H)-yl)piperidine-2,6-dione] | < 50 | ≤ 1 | A (“A” represents a % degradation value of less than 25% (value<25%)) |  |  |  |  |  |
| CN(C)Cc1ccc(OCc2scc3c2CN([C@H]2CCC(=O)NC2=O)C3=O)cc1 [Compound 18, (S)-3-(1-((4-((dimethylamino)methyl)phenoxy)methyl)-4-oxo-4H-thieno[3,4-c]pyrrol-5(6H)-yl)piperidine-2,6-dione] | 70 to 90 | 2 to 3 | C (“C” represents a % degradation value of equal to or more than 50% and less than 75% (50%≤value <75%)) |  | 50 to 70 |  | < 25 | ≥ 75 |
| O=C1CC[C@H](N2C(=O)c3csc(COc4ccc(CN5CCOCC5)cc4)c3C2=O)C(=O)N1 [Compound 20, (S)-5-(2,6-dioxopiperidin-3-yl)-1-((4-(morpholinomethyl)phenoxy)methyl)-4H-thieno[3,4-c]pyrrole-4,6(5H)-dione] | 50 to 70 | 1 to 2 | B (“B” represents a % degradation value of equal to or more than 25% and less than 50% (25%≤value<50%)) |  | 50 to 70 |  | < 25 |  |
